Active and inactive are the calls of the source. The rule behind the calls is not given here.

For the first assay, the system named is Mus musculus. Kind of assay: Anticonvulsant activity in mouse assessed as inhibition of pentylenetetrazole-induced seizure at 100 mg/kg. Format: functional, organism-based. Details: dose 100 mg/kg.
On to `N#Cc1ccc(C(=O)NC2=CC(=O)CCC2)cc1`, for which the outcome was Active. On to `COc1ccc(C(=O)NC2=CC(=O)CC(C)C2)cc1` (stereo not drawn), for which the outcome was Active. `NC1=CC(=O)CCC1`: the result was Active. For the molecule `CCOC(=O)C1C(=O)C=C(Nc2ccc(C#N)cc2)CC1C` (stereo not drawn), the outcome was Active. Consider `COC(=O)C1C(=O)C=C(Nc2ccc(C(F)(F)F)cc2)CC1(C)C` (stereo not drawn), for which the outcome was Active.

For the molecule `CCOC(=O)C1C(=O)C=C(Nc2ccc(Cl)cc2)CC1C` (stereo not drawn), the result was Active. The same measure, in the same setting: as for `CCOC(=O)C1C(=O)C=C(NC(=O)c2ccc(C)cc2)CC1C` (stereo not drawn), the entry is “Active”; as for `CC1(C)CC(=O)C=C(NC(=O)c2ccc(C#N)cc2)C1`, “Active”.

Another assay relates to Mus musculus. Briefly: Anticonvulsant activity in mouse assessed as inhibition of pentylenetetrazole-induced seizure at 100 to 300 mg/kg. The class given is functional, organism-based.
As for `CC1CC(=O)C=C(Nc2cccc(Cl)c2)C1` (stereo not drawn), the result was Active. On to `COC(=O)C1C(=O)C=C(Nc2ccc(Cl)c(Cl)c2)CC1C` (stereo not drawn), for which the result was Active. Same read-out and setting: as for `CCOC(=O)C1C(=O)C2=C(CC1C)Nc1ccc(Cl)cc1S2` (stereo not drawn), the entry is “Active”; as for `COC(=O)C1C(=O)C=C(Nc2ccc(Br)cc2)CC1C` (stereo not drawn), “Active”; as for `CCOC(=O)C1C(=O)C=C(Nc2ccc(F)cc2)CC1C` (stereo not drawn), “Active”. For the molecule `CC1CC(=O)C=C(Nc2ccc(F)cc2)C1` (stereo not drawn), the outcome was Active.

For the molecule `COC(=O)C1C(=O)C=C(Nc2ccccc2F)CC1C` (stereo not drawn), the outcome was Active. On the same count and under the same terms, to `CC1CC(=O)C=C(Nc2ccc(OC(F)(F)F)cc2)C1` (stereo not drawn) belongs “Active”.

On to `CCOC(=O)C1C(=O)C=C(Nc2cc(C)ccc2OC)CC1C` (stereo not drawn), for which the outcome was Active. The same measure, in the same setting: as for `CCOC(=O)C1CCC(Nc2cccc(OC(F)(F)F)c2)=CC1=O` (stereo not drawn), the entry is “Active”. The same measure, in the same setting: to `CCOC(=O)C1C(=O)C=C(Nc2ccc(Cl)cn2)CC1C` (stereo not drawn) belongs “Active”; to `COC(=O)C1C(=O)C=C(Nc2ccc(Cl)cn2)CC1C` (stereo not drawn), “Active”.

With `CC(=O)/C=C(\C)Nc1ccc(I)cc1`, the result was Active. Same read-out and setting: as for `CCc1ccc(N/C(C)=C/C(C)=O)cc1`, the entry is “Active”; as for `COC(=O)C1C(=O)C=C(Nc2ccc(OC(F)(F)F)cc2)CC1C` (stereo not drawn), “Active”.

On to `COC(=O)C1C(=O)C=C(Nc2ccc(C(F)(F)F)cc2)CC1C` (stereo not drawn), for which the outcome was Active.

Regarding `COc1ccc(N/C(C)=C/C(C)=O)cc1`, the outcome was Active. Still for that read-out and setting: as for `CCOC(=O)C1C(=O)C=C(Nc2ccc(Cl)c(Cl)c2)CC1C` (stereo not drawn), the entry is “Active”; as for `CC1CC(=O)C=C(Nc2ccc(Cl)cc2)C1` (stereo not drawn), “Active”. The same measure, in the same setting: as for `CCOC(=O)C1C(=O)C=C(Nc2ccc(Cl)cc2Cl)CC1C` (stereo not drawn), the entry is “Active”.

Regarding `COC(=O)C1C(=O)C=C(Nc2ccc(Cl)cc2)CC1(C)C` (stereo not drawn), the result was Active. Regarding `CC1CC(=O)C=C(Nc2cccc(Br)c2)C1` (stereo not drawn), the outcome was Active.

For `COC(=O)C1C(=O)C=C(Nc2ccc(F)cc2)CC1C` (stereo not drawn), the outcome was Active.

Take `CC(=O)/C=C(\C)Nc1ccc(Br)cc1`: the result was Active. On to `CC(=O)/C=C(\C)Nc1ccc(Cl)cc1`, for which the outcome was Active.
